{"source": "patent US20110263696A1", "about": "“PROANTHOCYANIDINS FROM CINNAMON AND ITS WATER SOLUBLE EXTRACT INHIBIT TAU AGGREGATION” (priority 2007, published 2011)", "key": {"[1]": {"tested_on": "tau polypeptides", "assay": "Light scattering measurements (absorbance at 350 nm) of tau aggregation", "assay_type": "biochemical, human", "description": "FIG. 11. Dose response of cinnamon (oxidized) on tau aggregation. […] In this experiment, cinnamon was incubated overnight in 10 mM NH4OH.\nFIG. 12. Effect of cinnamon A trimer on light scattering of tau.\nIn one illustrative embodiment of the invention, the effects of cinnamon extract or purified cinnamon proanthocyanidins on tau aggregation can be followed readily in a spectrophotometer by measuring the change in absorbance at 350 nm. The association of tau promoted by heparin causes an increase in absorbance. […] Different buffers and temperatures may be used if desired to study factor influencing aggregation."}, "[2]": {"tested_on": "tau", "settings": "literature; cited from earlier work"}, "[3]": {"molecular_target": "T1, tau187 (Homo sapiens, UniProt P10636)", "T1 construct": "his; made in house; host or cells: bacteria", "T1 sequence (P10636 572-758 limits assumed)": "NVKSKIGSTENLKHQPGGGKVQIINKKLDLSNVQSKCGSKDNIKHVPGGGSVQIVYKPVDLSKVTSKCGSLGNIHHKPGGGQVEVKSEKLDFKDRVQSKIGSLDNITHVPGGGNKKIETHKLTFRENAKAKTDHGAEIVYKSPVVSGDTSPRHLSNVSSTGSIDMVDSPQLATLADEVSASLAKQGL", "assay": "Turbidity (OD350) assay of heparin-induced aggregation, tau187", "assay_type": "biochemical", "settings": "cinnamaldehyde 50 and 100 uM; tau187 50 uM, heparin 0.11 mg/ml, 23 C", "description": "FIG. 15A. […] 50 μM Tau^187 was incubated with 0.11 mg/ml heparin (18 kDa) at 23° C. Aggregation was monitored by turbidity (OD350). Cinnamaldehyde was present at a final concentration of 0, 50 and 100 μM. FIG. 15B. Electron microscopy of tau fibers in the presence of cinnamaldehyde (CA). Tau fibers were visualized by electron microscopy after 5 hrs of aggregation in the presence of: 0 CA (left panel); B) 100 uM CA (right panel). […] FIG. 15 C. Trans-cinnamaldehyde chemical structure. FIG. 16A. […] 50 uM tau187 was incubated with 0.11 mg/mL heparin (18 kDa) at 23° C. Epicatechin was untreated, treated with 10 mM NH4OH for 10 min at 95° C. then neutralized, or treated with 100 U of mushroom tyrosinase (Sigma) for 10 min. Epicatechin was added to the reaction at a final concentration of 25 uM. Fiber formation was monitored by OD 350. FIG. 16B. epicatechin and catechin chemical structures. FIG. 17A. HPLC analysis of proanthocyanidin A-type trimer, A) purified or B) in whole cinnamon extract. The trimer corresponds to the major peak at ˜40 min. Areas underneath the peaks in panels A and B each correspond to 6150 pmoles. […] Fiber formation was monitored by OD 350. Concentrations of A-trimer in pure form and in whole cinnamon extract (CE) were normalized by absorbance measurements of the A-trimer resolved by HPLC. […]"}, "[4]": {"molecular_target": "T1, tau187", "assay": "Electron microscopy of tau187 fibers", "assay_type": "biochemical", "settings": "100 uM CA, 5 hrs of aggregation", "description": "FIG. 6. […] Aggregation of tau^187 (50 uM) was initiated with heparin (0.1 mg/ml) in 20 mM NaPO4, pH 7.0. in the presence of: no proanthocyanidin (left panel), or 200 uM purified A-type trimer (right panel). Scale: Bars=500 nm\nFIG. 13. Effect of oxidized cinnamon on tau filament formation. […] Left panel: no cinnamon; right panel 10 μM oxidized cinnamon.\nFIG. 15A. […] 50 μM Tau^187 was incubated with 0.11 mg/ml heparin (18 kDa) at 23° C. Aggregation was monitored by turbidity (OD350). Cinnamaldehyde was present at a final concentration of 0, 50 and 100 μM. FIG. 15B. Electron microscopy of tau fibers in the presence of cinnamaldehyde (CA). Tau fibers were visualized by electron microscopy after 5 hrs of aggregation in the presence of: 0 CA (left panel); B) 100 uM CA (right panel). […] FIG. 15 C. Trans-cinnamaldehyde chemical structure.\nTwo hexapeptide motifs in tau are critical for tau aggregation and fiber formation (see, e.g. von Bergen et al., Proc Nad Acad Sci USA 97, 5129-34 (2000)). These motifs lie in the first and second inter-repeat regions of the MT binding domain (FIG. 5), and it is known that engineered truncation fragments of tau that contain these motifs often undergo aggregation into fibers even more efficiently than the full-length molecule (see, e.g. Barghorn et al., Biochemistry 41, 14885-96 (2002)). […]"}, "[5]": {"settings": "literature; cited from earlier work"}}, "data": [{"smiles": "Oc1cc(O)c2c(c1)O[C@H](c1ccc(O)c(O)c1)[C@H](O)[C@H]2c1c(O)cc(O)c2c1O[C@H](c1ccc(O)c(O)c1)[C@H](O)C2", "note": "[cinnamon proanthocyanidin B2, proanthocyanidin B2]", "values": [{"measurement": "Inhibition of tau aggregation by light scattering", "setting": "[1]", "value": "inhibits the aggregation"}]}, {"smiles": "Oc1cc(O)c2c(c1)O[C@H](c1ccc(O)c(O)c1)[C@H](O)[C@H]2c1c(O)cc(O)c2c1O[C@H](c1ccc(O)c(O)c1)[C@@H](O)C2", "note": "[proanthocyanidin dimer B1]", "values": [{"measurement": "Inhibition of tau aggregation (published studies)", "setting": "[2]", "value": "effectively inhibit tau aggregation"}]}, {"smiles": "O=C(O[C@@H]1Cc2c(O)cc(O)cc2O[C@@H]1c1cc(O)c(O)c(O)c1)c1cc(O)c(O)c(O)c1", "note": "[epigallocatechin gallate]", "values": [{"measurement": "Inhibition of tau aggregation (published studies)", "setting": "[2]", "value": "effectively inhibit tau aggregation"}]}, {"smiles": "O=C/C=C/c1ccccc1", "note": "[cinnamaldehyde, Trans-cinnamaldehyde]", "values": [{"measurement": "Inhibition of tau187 aggregation (turbidity OD350)", "setting": "[3]", "value": "Inhibition of tau aggregation"}, {"measurement": "Tau fiber density by EM", "setting": "[4]", "value": "dramatically reduced"}]}, {"smiles": "Oc1cc(O)c2c(c1)O[C@H](c1ccc(O)c(O)c1)[C@H](O)C2", "note": "[epicatechin]", "values": [{"measurement": "Brain permeability after oral ingestion", "setting": "[5]", "value": "brain-permeable"}]}]}
